Results as given in the kinase profiling compilation of Christmann-Franck et al. (2016).

Tests used:
Assay in all cases: radiometric filter-binding kinase assay
HIPK1 (human) = HIPK1 (human) (UniProt Q86Z02)
[1] = system: SGK1 (human), O00141 [S422D]
DAPK1 (human) = DAPK1 (human) (UniProt P53355)
RPS6KA3 KD1 KD2 (human) = RPS6KA3 KD1 KD2 (human) (UniProt P51812)
MARK4 (human) = MARK4 (human) (UniProt Q96L34)
TAOK1 (human) = TAOK1 (human) (UniProt Q7L7X3)
GCK (human) = GCK (human) (UniProt Q12851)
CHEK1 (human) = CHEK1 (human) (UniProt O14757)
EEF2K (human) = EEF2K (human) (UniProt O00418)
BRSK2 (human) = BRSK2 (human) (UniProt Q8IWQ3)
PRKCZ (human) = PRKCZ (human) (UniProt Q05513)
EPHB4 (human) = EPHB4 (human) (UniProt P54760)
PRKCA (human) = PRKCA (human) (UniProt P17252)
MAPK3 (human) = MAPK3 (human) (UniProt P27361)
NUAK1 (human) = NUAK1 (human) (UniProt O60285)
CHEK2 (human) = CHEK2 (human) (UniProt O96017)
MAP3K5 (human) = MAP3K5 (human) (UniProt Q99683)
MAP3K1 (human) = MAP3K1 (human) (UniProt Q13233)
FLT1 (human) = FLT1 (human) (UniProt P17948)
JAK2 JH1 JH2 (human) = JAK2 JH1 JH2 (human) (UniProt O60674)
PAK6 (human) = PAK6 (human) (UniProt Q9NQU5)
MST4 (human) = MST4 (human) (UniProt Q9P289)
NTRK1 (human) = NTRK1 (human) (UniProt P04629)
PLK1 (human) = PLK1 (human) (UniProt P53350)
MAPK1 (human) = MAPK1 (human) (UniProt P28482)
RPS6KA5 KD1 KD2 (human) = RPS6KA5 KD1 KD2 (human) (UniProt O75582)
MARK3 (human) = MARK3 (human) (UniProt P27448)
RPS6KA1 KD1 KD2 (human) = RPS6KA1 KD1 KD2 (human) (UniProt Q15418)
HIPK3 (human) = HIPK3 (human) (UniProt Q9H422)
CLK2 (human) = CLK2 (human) (UniProt P49760)
AURKA (human) = AURKA (human) (UniProt O14965)
CDK2 CCNA2 (human) = CDK2 CCNA2 (human) (UniProt P20248+P24941)
STK3 (human) = STK3 (human) (UniProt Q13188)
ERBB4 (human) = ERBB4 (human) (UniProt Q15303)
SRC (human) = SRC (human) (UniProt P12931)

RPS6KA1 KD1 KD2 (human), sequence (Q15418 whole entry, looked up): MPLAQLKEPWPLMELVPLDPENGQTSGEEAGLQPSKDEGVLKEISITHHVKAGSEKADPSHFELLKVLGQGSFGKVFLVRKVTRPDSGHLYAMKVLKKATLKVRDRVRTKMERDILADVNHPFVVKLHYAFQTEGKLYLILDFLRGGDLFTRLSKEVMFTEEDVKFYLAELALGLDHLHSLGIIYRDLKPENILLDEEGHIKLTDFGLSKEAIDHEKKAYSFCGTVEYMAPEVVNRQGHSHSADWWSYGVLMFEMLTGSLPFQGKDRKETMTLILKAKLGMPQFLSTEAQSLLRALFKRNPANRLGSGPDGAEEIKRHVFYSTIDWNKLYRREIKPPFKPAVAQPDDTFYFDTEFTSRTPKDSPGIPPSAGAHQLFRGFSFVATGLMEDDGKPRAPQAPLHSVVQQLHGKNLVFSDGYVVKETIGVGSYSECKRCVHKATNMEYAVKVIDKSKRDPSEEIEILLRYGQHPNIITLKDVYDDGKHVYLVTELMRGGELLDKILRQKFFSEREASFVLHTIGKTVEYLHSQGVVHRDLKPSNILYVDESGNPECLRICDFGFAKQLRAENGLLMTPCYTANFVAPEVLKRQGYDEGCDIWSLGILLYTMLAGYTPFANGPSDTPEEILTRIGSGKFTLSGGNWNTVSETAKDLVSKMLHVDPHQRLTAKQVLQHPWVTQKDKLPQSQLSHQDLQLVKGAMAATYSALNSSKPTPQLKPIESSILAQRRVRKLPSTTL
MAP3K5 (human), sequence (Q99683 whole entry, looked up): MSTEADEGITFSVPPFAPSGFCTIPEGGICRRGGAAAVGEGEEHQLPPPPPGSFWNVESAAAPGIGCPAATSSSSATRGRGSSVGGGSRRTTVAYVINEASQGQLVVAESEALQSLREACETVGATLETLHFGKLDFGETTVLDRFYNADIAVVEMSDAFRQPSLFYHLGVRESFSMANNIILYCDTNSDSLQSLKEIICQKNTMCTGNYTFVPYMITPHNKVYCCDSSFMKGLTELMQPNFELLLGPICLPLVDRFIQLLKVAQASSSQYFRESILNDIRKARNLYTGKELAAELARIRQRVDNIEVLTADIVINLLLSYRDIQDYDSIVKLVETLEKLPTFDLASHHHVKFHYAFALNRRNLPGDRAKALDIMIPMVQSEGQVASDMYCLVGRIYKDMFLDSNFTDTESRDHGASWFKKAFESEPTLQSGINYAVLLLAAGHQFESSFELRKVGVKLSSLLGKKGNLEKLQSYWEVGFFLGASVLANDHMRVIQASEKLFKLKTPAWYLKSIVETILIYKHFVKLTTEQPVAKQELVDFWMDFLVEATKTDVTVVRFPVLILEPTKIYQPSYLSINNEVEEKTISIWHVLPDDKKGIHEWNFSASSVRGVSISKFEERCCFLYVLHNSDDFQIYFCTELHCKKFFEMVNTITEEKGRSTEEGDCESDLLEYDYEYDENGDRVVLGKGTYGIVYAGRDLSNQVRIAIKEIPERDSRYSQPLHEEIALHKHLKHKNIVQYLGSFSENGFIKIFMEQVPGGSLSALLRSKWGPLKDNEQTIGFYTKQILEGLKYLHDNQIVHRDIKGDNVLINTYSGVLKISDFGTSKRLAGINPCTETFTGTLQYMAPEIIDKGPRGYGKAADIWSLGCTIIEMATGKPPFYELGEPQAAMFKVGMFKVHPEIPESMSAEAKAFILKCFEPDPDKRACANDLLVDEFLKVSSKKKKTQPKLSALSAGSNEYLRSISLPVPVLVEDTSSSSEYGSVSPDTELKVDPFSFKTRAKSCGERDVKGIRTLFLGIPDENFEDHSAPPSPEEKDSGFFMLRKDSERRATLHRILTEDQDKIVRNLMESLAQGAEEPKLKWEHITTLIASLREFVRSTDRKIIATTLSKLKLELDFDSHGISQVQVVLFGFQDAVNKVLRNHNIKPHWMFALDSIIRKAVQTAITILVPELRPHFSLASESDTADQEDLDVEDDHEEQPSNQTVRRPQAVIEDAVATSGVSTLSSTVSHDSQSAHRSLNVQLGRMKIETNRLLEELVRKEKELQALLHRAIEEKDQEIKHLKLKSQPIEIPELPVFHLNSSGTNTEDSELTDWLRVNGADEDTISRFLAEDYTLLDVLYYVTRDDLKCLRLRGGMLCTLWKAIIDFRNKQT
NTRK1 (human), sequence (P04629 whole entry, looked up): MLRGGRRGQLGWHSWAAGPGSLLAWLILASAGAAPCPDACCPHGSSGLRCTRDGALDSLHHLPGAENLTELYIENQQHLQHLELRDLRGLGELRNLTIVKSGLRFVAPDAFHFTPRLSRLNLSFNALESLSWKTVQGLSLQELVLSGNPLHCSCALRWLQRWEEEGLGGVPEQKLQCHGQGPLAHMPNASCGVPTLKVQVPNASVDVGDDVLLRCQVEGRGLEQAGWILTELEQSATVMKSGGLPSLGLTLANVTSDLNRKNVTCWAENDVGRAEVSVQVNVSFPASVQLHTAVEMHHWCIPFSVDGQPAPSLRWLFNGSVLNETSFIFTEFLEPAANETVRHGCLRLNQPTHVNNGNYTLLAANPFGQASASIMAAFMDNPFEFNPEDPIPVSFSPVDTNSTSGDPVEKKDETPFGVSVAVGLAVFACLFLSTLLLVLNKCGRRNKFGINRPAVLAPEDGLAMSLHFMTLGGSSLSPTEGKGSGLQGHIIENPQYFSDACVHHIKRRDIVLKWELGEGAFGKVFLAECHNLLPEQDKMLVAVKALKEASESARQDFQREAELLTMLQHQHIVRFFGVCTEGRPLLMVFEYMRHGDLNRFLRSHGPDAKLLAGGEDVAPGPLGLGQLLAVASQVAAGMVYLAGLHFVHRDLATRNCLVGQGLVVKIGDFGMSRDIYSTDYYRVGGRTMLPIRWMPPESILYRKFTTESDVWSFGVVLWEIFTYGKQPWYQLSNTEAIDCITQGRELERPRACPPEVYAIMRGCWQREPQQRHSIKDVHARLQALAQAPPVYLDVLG
FLT1 (human), sequence (P17948 whole entry, looked up): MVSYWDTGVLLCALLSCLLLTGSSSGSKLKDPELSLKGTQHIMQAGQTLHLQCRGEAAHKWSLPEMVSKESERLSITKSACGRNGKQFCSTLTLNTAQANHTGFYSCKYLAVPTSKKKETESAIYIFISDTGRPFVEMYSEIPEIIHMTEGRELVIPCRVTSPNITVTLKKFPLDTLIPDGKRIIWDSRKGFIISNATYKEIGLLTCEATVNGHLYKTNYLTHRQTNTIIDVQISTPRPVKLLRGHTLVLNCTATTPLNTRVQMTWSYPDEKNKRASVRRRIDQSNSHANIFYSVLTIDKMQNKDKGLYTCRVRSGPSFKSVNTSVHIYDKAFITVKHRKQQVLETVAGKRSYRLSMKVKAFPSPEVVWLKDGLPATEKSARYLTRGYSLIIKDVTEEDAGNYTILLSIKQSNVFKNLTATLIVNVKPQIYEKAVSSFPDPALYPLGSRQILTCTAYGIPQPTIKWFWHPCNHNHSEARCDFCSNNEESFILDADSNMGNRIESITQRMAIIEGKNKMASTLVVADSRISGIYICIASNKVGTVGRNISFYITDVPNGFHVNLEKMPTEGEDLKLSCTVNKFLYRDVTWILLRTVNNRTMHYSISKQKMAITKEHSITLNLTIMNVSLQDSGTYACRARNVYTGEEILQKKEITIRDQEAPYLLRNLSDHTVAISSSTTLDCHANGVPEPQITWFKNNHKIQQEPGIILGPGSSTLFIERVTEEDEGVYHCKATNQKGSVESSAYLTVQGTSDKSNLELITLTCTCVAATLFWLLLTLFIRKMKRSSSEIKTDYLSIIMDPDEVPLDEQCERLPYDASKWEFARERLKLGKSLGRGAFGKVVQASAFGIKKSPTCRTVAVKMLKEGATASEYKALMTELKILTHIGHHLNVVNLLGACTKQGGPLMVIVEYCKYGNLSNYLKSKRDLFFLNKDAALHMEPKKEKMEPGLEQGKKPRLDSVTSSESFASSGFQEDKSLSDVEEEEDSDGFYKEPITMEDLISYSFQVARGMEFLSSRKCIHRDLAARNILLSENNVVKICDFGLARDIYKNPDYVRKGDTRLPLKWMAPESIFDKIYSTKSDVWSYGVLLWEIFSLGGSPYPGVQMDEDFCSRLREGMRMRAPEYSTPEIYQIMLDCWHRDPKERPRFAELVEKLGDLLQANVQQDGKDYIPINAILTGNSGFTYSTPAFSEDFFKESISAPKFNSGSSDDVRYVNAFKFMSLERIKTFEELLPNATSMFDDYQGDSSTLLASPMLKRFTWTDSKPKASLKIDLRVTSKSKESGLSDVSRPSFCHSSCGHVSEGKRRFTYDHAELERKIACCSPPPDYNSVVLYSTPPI

Structure (SMILES): O=C(Nc1nc2cc(C(F)(F)F)cc(NC3CC3)n2n1)c1cccnc1
- residual activity (HIPK1 (human); compound 0.01 µM): 96%
- residual activity (HIPK1 (human); compound 0.1 µM): 96%
- residual activity (HIPK1 (human); compound 1.0 µM): 92%
- residual activity ([1]; compound 0.01 µM): 103%
- residual activity ([1]; compound 1.0 µM): 100%
- residual activity (DAPK1 (human); compound 0.01 µM): 112%
- residual activity (DAPK1 (human); compound 0.1 µM): 95%
- residual activity (DAPK1 (human); compound 1.0 µM): 95%
- residual activity (RPS6KA3 KD1 KD2 (human); compound 0.01 µM): 112%
- residual activity (RPS6KA3 KD1 KD2 (human); compound 0.1 µM): 106%
- residual activity (RPS6KA3 KD1 KD2 (human); compound 1.0 µM): 89%
- residual activity (MARK4 (human); compound 0.01 µM): 127%
- residual activity (MARK4 (human); compound 0.1 µM): 111%
- residual activity (MARK4 (human); compound 1.0 µM): 119%
- residual activity (TAOK1 (human); compound 0.01 µM): 91%
- residual activity (TAOK1 (human); compound 0.1 µM): 101%
- residual activity (TAOK1 (human); compound 1.0 µM): 105%
- residual activity (GCK (human); compound 0.01 µM): 112%
- residual activity (GCK (human); compound 0.1 µM): 103%
- residual activity (GCK (human); compound 1.0 µM): 108%
- residual activity (CHEK1 (human); compound 0.01 µM): 103%
- residual activity (CHEK1 (human); compound 0.1 µM): 99%
- residual activity (CHEK1 (human); compound 1.0 µM): 104%
- residual activity (EEF2K (human); compound 0.01 µM): 99%
- residual activity (EEF2K (human); compound 0.1 µM): 118%
- residual activity (EEF2K (human); compound 1.0 µM): 84%
- residual activity (BRSK2 (human); compound 0.01 µM): 116%
- residual activity (BRSK2 (human); compound 0.1 µM): 116%
- residual activity (BRSK2 (human); compound 1.0 µM): 109%
- residual activity (PRKCZ (human); compound 0.01 µM): 96%
- residual activity (PRKCZ (human); compound 1.0 µM): 84%
- residual activity (EPHB4 (human); compound 0.01 µM): 106%
- residual activity (EPHB4 (human); compound 0.1 µM): 104%
- residual activity (EPHB4 (human); compound 1.0 µM): 96%
- residual activity (PRKCA (human); compound 0.01 µM): 87%
- residual activity (PRKCA (human); compound 0.1 µM): 89%
- residual activity (PRKCA (human); compound 1.0 µM): 94%
- residual activity (MAPK3 (human); compound 0.01 µM): 120%
- residual activity (MAPK3 (human); compound 0.1 µM): 127%
- residual activity (MAPK3 (human); compound 1.0 µM): 116%
- residual activity (NUAK1 (human); compound 0.01 µM): 100%
- residual activity (NUAK1 (human); compound 0.1 µM): 116%
- residual activity (NUAK1 (human); compound 1.0 µM): 98%
- residual activity (CHEK2 (human); compound 0.01 µM): 93%
- residual activity (CHEK2 (human); compound 0.1 µM): 114%
- residual activity (CHEK2 (human); compound 1.0 µM): 89%
- residual activity (MAP3K5 (human); compound 0.01 µM): 98%
- residual activity (MAP3K5 (human); compound 0.1 µM): 54%
- residual activity (MAP3K5 (human); compound 1.0 µM): 11%
- residual activity (MAP3K1 (human); compound 0.01 µM): 97%
- residual activity (MAP3K1 (human); compound 0.1 µM): 108%
- residual activity (MAP3K1 (human); compound 1.0 µM): 91%
- residual activity (FLT1 (human); compound 0.01 µM): 109%
- residual activity (FLT1 (human); compound 0.1 µM): 88%
- residual activity (FLT1 (human); compound 1.0 µM): 108%
- residual activity (JAK2 JH1 JH2 (human); compound 0.01 µM): 114%
- residual activity (JAK2 JH1 JH2 (human); compound 0.1 µM): 100%
- residual activity (JAK2 JH1 JH2 (human); compound 1.0 µM): 100%
- residual activity (PAK6 (human); compound 0.01 µM): 100%
- residual activity (PAK6 (human); compound 0.1 µM): 88%
- residual activity (PAK6 (human); compound 1.0 µM): 93%
- residual activity (MST4 (human); compound 0.01 µM): 106%
- residual activity (MST4 (human); compound 0.1 µM): 99%
- residual activity (MST4 (human); compound 1.0 µM): 106%
- residual activity (NTRK1 (human); compound 0.01 µM): 80%
- residual activity (NTRK1 (human); compound 0.1 µM): 83%
- residual activity (NTRK1 (human); compound 1.0 µM): 81%
- residual activity (PLK1 (human); compound 0.01 µM): 104%
- residual activity (PLK1 (human); compound 0.1 µM): 128%
- residual activity (PLK1 (human); compound 1.0 µM): 103%
- residual activity (MAPK1 (human); compound 0.01 µM): 92%
- residual activity (MAPK1 (human); compound 0.1 µM): 96%
- residual activity (MAPK1 (human); compound 1.0 µM): 102%
- residual activity (RPS6KA5 KD1 KD2 (human); compound 0.01 µM): 114%
- residual activity (RPS6KA5 KD1 KD2 (human); compound 0.1 µM): 114%
- residual activity (RPS6KA5 KD1 KD2 (human); compound 1.0 µM): 95%
- residual activity (MARK3 (human); compound 0.01 µM): 83%
- residual activity (MARK3 (human); compound 0.1 µM): 87%
- residual activity (MARK3 (human); compound 1.0 µM): 86%
- residual activity (RPS6KA1 KD1 KD2 (human); compound 0.01 µM): 99%
- residual activity (RPS6KA1 KD1 KD2 (human); compound 0.1 µM): 102%
- residual activity (RPS6KA1 KD1 KD2 (human); compound 1.0 µM): 65%
- residual activity (HIPK3 (human); compound 0.01 µM): 101%
- residual activity (HIPK3 (human); compound 0.1 µM): 102%
- residual activity (HIPK3 (human); compound 1.0 µM): 96%
- residual activity (CLK2 (human); compound 0.01 µM): 101%
- residual activity (CLK2 (human); compound 0.1 µM): 82%
- residual activity (CLK2 (human); compound 1.0 µM): 40%
- residual activity (AURKA (human); compound 0.01 µM): 108%
- residual activity (AURKA (human); compound 0.1 µM): 128%
- residual activity (AURKA (human); compound 1.0 µM): 96%
- residual activity (CDK2 CCNA2 (human); compound 0.01 µM): 95%
- residual activity (CDK2 CCNA2 (human); compound 0.1 µM): 98%
- residual activity (CDK2 CCNA2 (human); compound 1.0 µM): 85%
- residual activity (STK3 (human); compound 0.01 µM): 99%
- residual activity (STK3 (human); compound 0.1 µM): 116%
- residual activity (STK3 (human); compound 1.0 µM): 93%
- residual activity (ERBB4 (human); compound 0.01 µM): 106%
- residual activity (ERBB4 (human); compound 0.1 µM): 88%
- residual activity (ERBB4 (human); compound 1.0 µM): 88%
- residual activity (SRC (human); compound 0.01 µM): 100%
- residual activity (SRC (human); compound 0.1 µM): 107%
- residual activity (SRC (human); compound 1.0 µM): 102%
